For series [1], the system named is diet-induced obese (DIO) male Sprague Dawley rats. Kind of series: DIO rat 4-week constant sc infusion: body weight. Format: in vivo. Conditions: 100 nmol/kg/d of previous reference conjugates. How it is done: Various metabolic and PK parameters were evaluated.
Study Design. The Polypeptide Conjugates were tested relative to vehicle (50% DMSO in sterile water) and parent compounds alone and in combination (see Table 1).
Food intake and body weight were measured weekly. Body composition was assessed on day −1 and day 28 using an NMR instrument (Echo Medical Systems, Houston, Tex.). Adiposity (percent fat mass) was defined as the amount of fat mass relative to body weight (fat mass/body weight×100). Blood was collected via tail vein on day 14. On day 28 a sample of blood was drawn via the jugular vein and animals were euthanized by isoflurane overdose. Mini-pumps were immediately removed, animals were subjected to a brief NMR scan, and tissues were collected for future histological examination and preliminary toxicological assessment.
Statistical Analysis. Data were analyzed using one-way analysis of variance (ANOVA) with Newman-Keuls post-hoc comparisons. Significance was assumed for p<0.05. Graphs were generated using Prism 4 for Windows (Graphpad Software, San Diego, Calif.). All data points are expressed as mean±SEM.

Another series concerns rats. Put plainly: acute kaolin intake (pica, nausea) and chow intake in rats. Conditions: 15 nmol/kg/d, 24 hr post injection. Format: in vivo, rat. How it is done:
To investigate possible nausea effects of the conjugate polypeptide, acute kaolin intake was measured in rats. Pica behavior (ingestion of dirt/clay) is a marker of nausea in rodents, typically associated with reduced food intake and weight loss. Pica can be assessed by measuring intake of the synthetic clay kaolin. […] Rats were acclimated to kaolin for 3 days as kaolin clay mixed in with regular chow. A 4 hr and a 24 hr baseline kaolin and chow intake were then measured. Subsequently, rats were fasted for approximately 16 hrs after which test compound was injected at the dose indicated below. At 24 hr post injection chow and kaolin consumption was measured.

For the next series, the target named is T1, amylin receptor (Homo sapiens, UniProt P30988).
T1 sequence (P30988 25-474): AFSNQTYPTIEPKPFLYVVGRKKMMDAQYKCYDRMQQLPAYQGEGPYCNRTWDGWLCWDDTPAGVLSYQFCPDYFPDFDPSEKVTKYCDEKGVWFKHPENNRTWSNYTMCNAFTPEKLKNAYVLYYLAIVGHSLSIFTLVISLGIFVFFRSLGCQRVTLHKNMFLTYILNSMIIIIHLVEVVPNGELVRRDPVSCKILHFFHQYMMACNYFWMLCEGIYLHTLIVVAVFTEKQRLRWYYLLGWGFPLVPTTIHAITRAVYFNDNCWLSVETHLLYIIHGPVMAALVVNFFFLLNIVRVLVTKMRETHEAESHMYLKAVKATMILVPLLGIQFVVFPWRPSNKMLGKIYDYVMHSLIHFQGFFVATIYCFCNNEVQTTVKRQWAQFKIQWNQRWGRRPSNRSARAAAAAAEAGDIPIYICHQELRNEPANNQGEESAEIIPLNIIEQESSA
Kind of series: binding selectivity for amylin receptor against the CGRP receptor.

In another series the target is T2, calcitonin receptors (Homo sapiens, UniProt P30988).
T2 sequence (P30988 25-474): T1 sequence (P30988 25-474)
Kind of series: binding selectivity for calcitonin receptors against the CGRP receptor.

The subject of a further series is NIH/Swiss female mice. Kind of series: basal glucose lowering assay (Oral Glucose Tolerance Test; OGTT). Format: in vivo, mouse. Conditions: IP at t=-5 min, 4-hour fasted mice, glucose gavage […], blood glucose at t=30 minutes. How it is done:
Polypeptide Conjugates and parent compounds were analyzed in an in vivo basal glucose lowering assay. This assay reflects the conjugate polypeptide's ability to enhance insulin-mediated glucose clearance of orally administered glucose challenge (Oral Glucose Tolerance Test; OGTT). The OGTT is used to diagnose diabetes, although the simpler fasting plasma glucose test, which measures a subject's plasma glucose level after fasting for at least eight hours, is preferred. The following procedure was used: Test compound at various concentrations was injected intraperitoneally (IP) at t=−5 min to 4-hour fasted NIH/Swiss female mice. Glucose gavage (1.5 g/kg) was given at t=0. Sample was taken at t=30 minutes as tail blood glucose using a OneTouch® Ultra® (LifeScan, Inc., Milpitas, Calif.). Significant effects were identified by ANOVA (p<0.05), followed by Dunnett's post test using GraphPad Prism version 4.00 for Windows (GraphPad Software, San Diego Calif.).

In another series the test system is male Sprague Dawley rats. Put plainly: delay of gastric emptying (acetaminophen appearance in plasma). Format: in vivo, rat. How it is done: Polypeptide Conjugates and parent compounds were analyzed for their ability to delay gastric emptying in rats. […] Rats then received an oral gavage of 33 mg acetaminophen/1 ml Orablend (Paddock Laboratories, Inc., MN USA) at t=3.5 hr, 5.5 hr or 7.5 hr post-injection. Blood was collected for measurement of acetaminophen at 4 hr, 6 hr or 8 hr after SC injection. Gastric emptying was assessed by the appearance of acetaminophen in plasma 30 min after oral gavage.

On to “HGEGTFTSDLSKQMEEEAVRLFIEWLKNGGGKCNTATCVLGRLSQELHRLQTYPRTNT GSNTY-NH2 [Cmpd 3A]”, for which the weight loss in series [1] was approximately 20%. Moreover, in the series on rats, the Inhibited food intake result is recorded as “Yes ~20%” and the Kaolin intake came out at 0.5 g. In addition, the “selectivity for amylin receptor against the CGRP receptor” value at amylin receptor is more than 100 fold. At calcitonin receptors, the “selectivity for calcitonin receptors against the CGRP receptor” value is more than 280 fold. Besides, the “ED50 in OGTT” value in the series with NIH/Swiss female mice came to 6 nmol/kg. For the same sequence, the “Percent Inhibition of Gastric Emptying 4 hr” value in the series on male Sprague Dawley rats (1 nmol/kg single sc injection, 4 hr) came out at 33. The “Percent Inhibition of Gastric Emptying 6 hr” value with male Sprague Dawley rats (1 nmol/kg single sc injection, 6 hr) is recorded as 0. For the same sequence, the “Percent Inhibition of Gastric Emptying 8 hr” value with male Sprague Dawley rats (1 nmol/kg single sc injection, 8 hr) was 0. Besides, the “inhibition of gastric emptying” value in the series with male Sprague Dawley rats (at the time point and doses tested) is given as “did not significantly inhibit gastric emptying”.

The values are drawn from patent US20140066370A1, “Polypeptide Conjugate” (priority 2009, published 2014).
